According to ChEMBL document CHEMBL5614467, “Structure-Activity Relationship of Truncated 4'-Selenonucleosides: A3 Adenosine Receptor Activity and Binding Selectivity” (ACS Med Chem Lett, 2024):

Legend:
[1] = target: T1, Adenosine receptor A2b (Homo sapiens) (UniProt P29275); experiment: Displacement of [3H]DPCPX from human adenosine A2B receptor extracted from HEK293 cell membrane assessed as inhibition of [3H]DPCPX binding at 10 uM incubated for 30 mins by microplate beta scintillation counter relative to control; format: cell membranes
T1 sequence (whole entry): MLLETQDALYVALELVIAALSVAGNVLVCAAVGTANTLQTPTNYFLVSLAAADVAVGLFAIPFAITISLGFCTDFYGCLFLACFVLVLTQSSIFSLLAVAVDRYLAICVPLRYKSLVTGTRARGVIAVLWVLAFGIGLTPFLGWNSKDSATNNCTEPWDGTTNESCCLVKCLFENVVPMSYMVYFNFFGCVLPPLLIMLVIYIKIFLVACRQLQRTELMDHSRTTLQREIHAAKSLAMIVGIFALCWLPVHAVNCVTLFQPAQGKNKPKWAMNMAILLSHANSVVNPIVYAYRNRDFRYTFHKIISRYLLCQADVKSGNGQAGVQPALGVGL

[2] = target: T2, Adenosine receptor A3 (Homo sapiens) (UniProt P0DMS8); experiment: Antagonist activity at human adenosine A3 receptor expressed in CHO cells assessed as inhibition of cAMP production preincubated for 15 mins followed by NECA addition for 10 mins and measured 5 mins after forskolin addition by enzyme immunoassay relative to control; format: functional, cell-based; conditions: time 30.0 min
T2 sequence (whole entry): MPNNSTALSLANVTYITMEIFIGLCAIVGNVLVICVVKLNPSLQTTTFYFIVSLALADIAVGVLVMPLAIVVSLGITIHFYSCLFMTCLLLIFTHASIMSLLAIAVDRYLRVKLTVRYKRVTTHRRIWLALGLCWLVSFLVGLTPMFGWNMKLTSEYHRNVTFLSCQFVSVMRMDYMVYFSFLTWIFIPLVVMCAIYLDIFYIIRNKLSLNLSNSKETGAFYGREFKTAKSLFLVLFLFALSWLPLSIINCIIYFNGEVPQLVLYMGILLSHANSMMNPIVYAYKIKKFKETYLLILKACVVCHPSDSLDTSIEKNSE

[3] = target: T3, Adenosine receptor A1 (Homo sapiens) (UniProt P30542); experiment: Displacement of [3H]DPCPX from human adenosine A1 receptor extracted from CHO cell membrane assessed as inhibition of [3H]DPCPX binding at 10 uM incubated for 60 mins by microplate beta scintillation counter relative to control; format: cell membranes
T3 sequence (whole entry): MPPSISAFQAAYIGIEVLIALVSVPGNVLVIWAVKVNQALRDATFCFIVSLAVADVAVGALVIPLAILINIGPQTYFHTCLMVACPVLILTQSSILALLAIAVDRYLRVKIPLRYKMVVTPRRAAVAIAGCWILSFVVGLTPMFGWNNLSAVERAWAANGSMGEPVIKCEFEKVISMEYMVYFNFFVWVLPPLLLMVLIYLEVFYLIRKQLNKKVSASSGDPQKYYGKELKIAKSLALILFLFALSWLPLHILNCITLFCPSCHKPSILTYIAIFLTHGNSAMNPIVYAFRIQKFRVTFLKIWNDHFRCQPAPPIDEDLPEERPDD

Adenosine receptor A3 [4] = target: T4, Adenosine receptor A3 (Homo sapiens, UniProt P0DMS8); experiment: Displacement of [3H]NECA from human adenosine A3 receptor extracted from human HeLa cell membrane assessed as inhibition constant incubated for 180 mins by microplate scintillation counter; format: cell membranes
T4 sequence (P0DMS8 whole entry): T2 sequence (whole entry)

[5] = target: T2, Adenosine receptor A3 (Homo sapiens); experiment: Partial agonist activity at human adenosine A3 receptor expressed in CHO cells assessed as cAMP production preincubated for 15 mins followed by forskolin addition and measured after 5 mins by enzyme immunoassay relative to control; format: functional, cell-based; conditions: filed as partial agonist, time 20.0 min
[6] = target: Adenosine receptor A2a (Homo sapiens) (UniProt P29274); experiment: Displacement of [3H]ZM241385 from human adenosine A2A receptor extracted from human HeLa cell membrane assessed as inhibition of [3H]ZM241385 binding at 10 uM incubated for 30 mins by microplate beta scintillation counter relative to control; format: cell membranes
Adenosine receptor A3 [7] = target: T4, Adenosine receptor A3; experiment: Binding affinity to human adenosine A3 receptor assessed as inhibition constant
Adenosine receptor A3 [8] = target: T4, Adenosine receptor A3; experiment: Displacement of [125I]iodo-AB-MECA from human adenosine A3 receptor expressed in CHO cells assessed as inhibition constant; format: cell-based

Sequence of Adenosine receptor A2a (Homo sapiens) (P29274 whole entry): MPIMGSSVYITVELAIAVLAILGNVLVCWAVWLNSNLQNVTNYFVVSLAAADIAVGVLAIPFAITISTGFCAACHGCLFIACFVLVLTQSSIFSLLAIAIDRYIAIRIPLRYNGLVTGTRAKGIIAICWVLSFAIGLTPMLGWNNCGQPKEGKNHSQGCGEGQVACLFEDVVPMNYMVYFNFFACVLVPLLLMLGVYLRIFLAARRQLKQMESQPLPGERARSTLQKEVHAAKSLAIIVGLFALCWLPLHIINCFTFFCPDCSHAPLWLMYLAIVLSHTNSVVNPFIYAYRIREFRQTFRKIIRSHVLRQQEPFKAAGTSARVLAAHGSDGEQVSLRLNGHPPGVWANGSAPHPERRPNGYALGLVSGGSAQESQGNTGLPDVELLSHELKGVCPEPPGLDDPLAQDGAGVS

Ki (Adenosine receptor A3 [7]) | Ki (Adenosine receptor A3 [8]) | Compound | inhibition [1] | inhibition [2] | inhibition [3] | Ki (Adenosine receptor A3 [4]) | Activity [5] | inhibition [6]
 |  | O[C@@H]1[C@H](O)C[Se][C@H]1n1cnc2c(NC3CC3)nc(Cl)nc21 | 29% | 11% | 26% | 5.7 nM | 87% | 6%
 |  | CCNc1ncnc2c1ncn2[C@@H]1[Se]C[C@@H](O)[C@H]1O | 7% |  | 25% | 17.5 nM |  | 2%
 |  | CCNc1nc(Cl)nc2c1ncn2[C@@H]1[Se]C[C@@H](O)[C@H]1O | 18% |  | 31% | 5.2 nM |  | 3%
 |  | O[C@@H]1[C@H](O)C[Se][C@H]1n1cnc2c(NC3CCCC3)ncnc21 | 7% |  | 39% | 36.6 nM |  | 16%
 |  | CNc1nc(Cl)nc2c1ncn2[C@@H]1[Se]C[C@@H](O)[C@H]1O | 28% |  | 14% | 25.2 nM |  | 3%
1.4 nM |  | CNC(=O)C1O[C@@H](n2cnc3c(Nc4cccc(I)c4)nc(Cl)nc32)[C@H](O)[C@@H]1O (stereo partly specified) |  |  |  |  |  | 
 |  | O[C@@H]1[C@H](O)C[Se][C@H]1n1cnc2c(NCc3cccc(I)c3)ncnc21 | 20% |  | 25% | 43.2 nM |  | 19%
 |  | O[C@@H]1[C@H](O)C[Se][C@H]1n1cnc2c(NCc3cccc(Cl)c3)ncnc21 | 30% |  | 32% | 32.5 nM |  | 25%
 | 0.38 nM | CNC(=O)C1S[C@@H](n2cnc3c(Nc4cccc(I)c4)nc(Cl)nc32)[C@H](O)[C@@H]1O (stereo partly specified) |  |  |  |  |  | 
 |  | O[C@@H]1[C@H](O)C[Se][C@H]1n1cnc2c(NCc3cccc(Cl)c3)nc(Cl)nc21 | 41% |  | 66% | 33.2 nM |  | 29%
 |  | Nc1nc(Cl)nc2c1ncn2[C@@H]1[Se]C[C@@H](O)[C@H]1O | 35% |  | 22% | 358 nM |  | 12%
 |  | O[C@@H]1[C@H](O)C[Se][C@H]1n1cnc2c(NCc3cccc(F)c3)nc(Cl)nc21 | 22% |  | 23% | 97.1 nM |  | 7%
 |  | O[C@@H]1[C@H](O)C[Se][C@H]1n1cnc2c(NCc3cccc(Br)c3)ncnc21 | 37% |  | 39% | 20.9 nM |  | 28%
 |  | O[C@@H]1[C@H](O)C[Se][C@H]1n1cnc2c(NC3CCCC3)nc(Cl)nc21 | 37% |  | 54% | 16.9 nM |  | 13%
 |  | O[C@@H]1[C@H](O)C[Se][C@H]1n1cnc2c(NCc3cccc(F)c3)ncnc21 | 8% |  | 12% | 121 nM |  | 2%
 |  | O[C@@H]1[C@H](O)C[Se][C@H]1n1cnc2c(NC3CC3)ncnc21 | 15% |  | 20% | 13.6 nM |  | 9%
 |  | CNc1ncnc2c1ncn2[C@@H]1[Se]C[C@@H](O)[C@H]1O | 1% |  | 7% | 31.1 nM |  | 2%
 |  | O[C@@H]1[C@H](O)C[Se][C@H]1n1cnc2c(NCc3cccc(Br)c3)nc(Cl)nc21 | 43% |  | 62% | 38.4 nM |  | 35%
 |  | O[C@@H]1[C@H](O)C[Se][C@H]1n1cnc2c(NCc3cccc(I)c3)nc(Cl)nc21 | 67% |  | 57% | 109 nM |  | 24%
 |  | Nc1ncnc2c1ncn2[C@@H]1[Se]C[C@@H](O)[C@H]1O | 25% |  | 10% | 238 nM |  | 33%
